Reference: patent publication US20240002463A1, “CHEMOGENETIC RECEPTORS AND METHODS OF MAKING AND USING” (Howard Hughes Medical Institute, priority 2022, published 2024)
Read-outs that look alike come from different tables or passages of the source.

What was measured:
α7-GlyR = target: T1, α7-GlyR (Homo sapiens, UniProt P36544); experiment: agonist potency/activity at unmodified α7-GlyR chimeric channel; assay type: cell-based
T1 construct: expressed in transfected cells; host or cells: HEK-293 (transient transfection)

α7-5HT3 [1] = target: T2, α7-5HT3 (Homo sapiens, UniProt P36544, M226I/T225I); experiment: agonist potency/activity at unmodified α7-5HT3 chimeric channel; assay type: cell-based; settings: agonist activity at unmodified α7-5HT3; read-out: EC50α7-5HT3
T2 construct: expressed in transfected cells; host or cells: HEK-293 (transient transfection)

[2] = rat; estimated; cited from earlier work
[3] = test system: hippocampal neurons expressing Gpr40; experiment: patch clamp electrophysiology of hippocampal neurons expressing Gpr40; assay type: cell-based, rat; settings: 0.2 μM; FIG. 12A
Protocol: For engineered neuromodulation of neurons by fatty acids, a fatty acid […] (Gpr40) was expressed in hippocampal neurons. Neuron firing was increased in response to a fatty acid, palmitate (20 μM), as well as a synthetic Gpr40 agonist, GW9508 (0.2 μM) (FIG. 12A, 12B). For testing, embryonic rat hippocampal neurons are transfected by electroporation with a plasmid expressing GPR40 and an mCherry fluorescent protein. Then cells are plated on poly-D-lysine coated 13 mm dia #1 glass coverslips in the wells of a 24 well plates at 50,000 cells/well. Each well receives 60 μL of cell suspension plus 60 μL of NbActiv4 medium (BrainBits) and are incubated at 37 C in 5% CO2 for 4 hours for initial cell attachment. NbActiv4 media (1 mL) is then added to each well and cultures kept for the duration of the experiment. Weekly medium changes are done by replacing 0.5 mL medium from each well with fresh NbActiv4. Fluorescent cells are recorded by patch clamp electrophysiology while palmitate or GW9508 are perfused over the cells intermittently in a saline extracellular solution.

α7-5HT3 [4] = target: T3, α7-5HT3 (Homo sapiens, UniProt P36544); experiment: agonist potency/activity at unmodified α7-5HT3 chimeric channel; assay type: cell-based
T3 construct: expressed in transfected cells; host or cells: HEK-293 (transient transfection)

dopamine release = settings: cited from earlier work
[5] = cited from earlier work

T3 sequence (P36544 with tags, fused parts or gaps T225I/M226I): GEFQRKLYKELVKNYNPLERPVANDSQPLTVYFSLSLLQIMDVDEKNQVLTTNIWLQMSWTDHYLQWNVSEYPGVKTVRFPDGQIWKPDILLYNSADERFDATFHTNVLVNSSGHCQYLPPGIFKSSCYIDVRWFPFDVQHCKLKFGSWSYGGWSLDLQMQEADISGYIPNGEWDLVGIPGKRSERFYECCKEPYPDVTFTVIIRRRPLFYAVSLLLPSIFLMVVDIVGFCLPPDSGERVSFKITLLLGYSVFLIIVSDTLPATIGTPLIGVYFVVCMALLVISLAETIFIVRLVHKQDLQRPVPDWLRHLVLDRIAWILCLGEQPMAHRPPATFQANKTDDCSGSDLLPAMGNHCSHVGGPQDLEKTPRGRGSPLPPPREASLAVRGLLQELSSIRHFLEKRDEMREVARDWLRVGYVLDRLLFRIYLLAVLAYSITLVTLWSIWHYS
T1 sequence (P36544 with tags, fused parts or gaps): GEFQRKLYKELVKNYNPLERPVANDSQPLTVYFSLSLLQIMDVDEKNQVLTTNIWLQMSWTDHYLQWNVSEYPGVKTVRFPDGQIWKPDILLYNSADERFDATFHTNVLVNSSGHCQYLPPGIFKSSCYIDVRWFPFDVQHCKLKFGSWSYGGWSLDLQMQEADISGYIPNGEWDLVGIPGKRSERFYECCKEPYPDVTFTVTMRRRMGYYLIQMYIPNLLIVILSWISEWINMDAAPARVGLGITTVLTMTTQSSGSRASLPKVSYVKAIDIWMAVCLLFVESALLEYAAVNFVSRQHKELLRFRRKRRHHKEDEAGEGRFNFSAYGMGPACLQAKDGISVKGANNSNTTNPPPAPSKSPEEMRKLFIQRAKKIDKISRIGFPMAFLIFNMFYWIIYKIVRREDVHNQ
T2 sequence (P36544 with tags, fused parts or gaps T225I/M226I): as the sequence (P36544 with tags, fused parts or gaps T225I/M226I) above

Compound: C[N+](C)(C)CCO [Choline]
- EC50 (α7-GlyR): 103000 nM
- EC50 (α7-5HT3 [1]): 37000 nM

Compound: COC(=O)[C@H]1[C@@H](OC(=O)c2ccccc2)C[C@@H]2CC[C@H]1N2C [Cocaine]
- brain concentration maintained by self-administration [2]: 10000 to 20000 nM

Compound: O=C(O)CCc1ccc(NCc2cccc(Oc3ccccc3)c2)cc1 [GW9508]
- neuron firing [3]: increased

Compound: CNC(C)Cc1ccc2c(c1)OCO2 (centres unmarked) [MDMA, 3,4-Methylenedioxy-methamphetamine]
- agonist activity at unmodified chimeric receptor α7-5HT3 (α7-5HT3 [4]): do not show agonist activity

Compound: CCCC(C(=O)c1ccc2c(c1)OCO2)N1CCCC1 (centres unmarked) [MDPV, methylenedioxypyrvalerone]
- EC50 (dopamine release; read-out: EC50 for DA release): 100 nM

Compound: CN1CCCC1c1cccnc1 (centres unmarked) [Nicotine]
- EC50 (dopamine release; nucleus accumbens, read-out: EC50 dopamine release in the nucleus accumbens): 480 nM

Compound: CC(N)Cc1ccccc1 (centres unmarked) [amphetamine, Amphetamine]
- EC50 (dopamine release; read-out: EC50 for DA release): 500 nM

Compound: CNC(C)C(=O)c1ccc(C)cc1 (centres unmarked) [mephedrone, Mephedrone]
- EC50 (dopamine release; read-out: EC50 for DA release): ~300 nM

Compound: CN[C@@H](C)Cc1ccccc1 [methamphetamine, Methamphetamine]
- blood concentration during self-administration ([5]; in females): 900 nM
- blood concentration during self-administration ([5]; in males): 700 nM
- agonist activity at unmodified chimeric receptor α7-5HT3 (α7-5HT3 [4]): do not show agonist activity

Compound: CNC(C)C(=O)c1ccc2c(c1)OCO2 (centres unmarked) [methylone, Methylone]
- EC50 (dopamine release; read-out: EC50 for DA release): ~400 nM

Compound: COC(=O)C(c1ccccc1)C1CCCCN1 (centres unmarked) [methylphenidate, Methylphenidate]
- EC50 (dopamine release; striatum, read-out: EC50 for release of DA in the striatum): 10000 nM
